Like-named read-outs stand apart in the source and are kept apart here.
Legend:
Hsp32 = test: Western blot of Hsp32 in HT-22 cells; type: cell-based, mouse; conditions: 24 h after addition; GK-1, GK-2 10^−8 and 10^−5 M; GK-3 10^−6 M; GK-4 10^−7 M; GK-5 10^−6 M
Procedure: The amount of Hsp70, Hsp32 and pTrkA was determined in the cytoplasmic fraction of HT-22 neuronal cells. For heat shock proteins, a test compound was added to the culture 24 hours prior to testing, before the cells were washed off the culture liquid with PBS. For pTrkA, a test compound was added to the culture immediately prior to the cell lysis just for 1 or 2 min, before the cells were washed off the culture liquid with PBS. Then the cells were mixed with the lysis buffer (50 mM Tris-HCl, 5 mM EDTA, 1 mM DTT, 1% Triton X-100, pH 7.5) at 4° C. and lysed for 5 min, then scraped off, transferred into a 1.5 ml centrifuge tube and centrifuged at 13000 rpm and 4° C. for 10 min. The supernatant containing cytosolic proteins was assayed by electrophoresis and immunoblotting. Proteins were separated on a 10% polyacrylamide gel (PAAG) and transferred from PAAG onto a PVDF membrane by electroelution for 45 min. Western blots were pre-incubated for 1 h in a TBST solution containing 1% Tween-20 and supplemented with 5% (w/v) skim milk. Western blots were then incubated with the primary polyclonal anti-Hsp32 antibody diluted 1:1000 or primary monoclonal anti-Hsp70 antibody diluted 1:1000 or primary monoclonal anti-phosphorylated tyrosine kinase A antibody diluted 1:1000 for 1 hour. Then the blots were washed and incubated with a secondary antibody conjugated to horseradish peroxidase (diluted 1:2000) for 1 hour. The detection of Hsp70, Hsp32 and pTrkA was carried out by the ECL reaction on a Kodak film.

[1] = test system: rats with ischemic cerebral infarction
rats = conditions: 1.0 mg/kg i.p. 24 h prior to apomorphine (pretreatment); FIG. 2.10
Procedure: The control group was treated with distilled water according to the same regimen.

[2] = test system: rats with ischemic cerebral infarction; conditions: 7 days after surgery; 1 mg/kg i.p. x3
[3] = test system: rats with hemorrhagic stroke; conditions: 1 mg/kg
Procedure: The experiments were carried out on male white outbred rats weighing 220-250 g. […] The local cerebral hemorrhage (post-traumatic intracerebral hemorrhage) as a hemorrhagic stroke (HS) model was produced by the method of Makarenko (Makarenko A. N. et al., Zh. V. N. D. 2002, 52(6), 765-768).
To produce the stroke, rats were anesthetized with chloral hydrate (400 mg/kg i.m.) followed by craniotomy. The cerebral tissue in the region of internal capsule was destroyed followed (in 2-3 min) by the injection of blood (0.02-0.03 ml) taken from under the animal's tongue.
The neurological deficits, changes in the coordination of movements, muscle tone, orientation and exploratory behavior of the rats were recorded at 24 h after surgery.
The rats were monitored for 14 days after surgery. Animal's physical condition and behavioral features were recorded at 1, 3, 7 and 14 days.
The animals were distributed into 3 groups. Group 1 comprised sham-operated (SO) rats with craniotomy alone, group 2 comprised animals with HS, and group 3 comprised rats with HS treated with GK-2 (1 mg/kg at 3 h after surgery and every 48 hours thereafter for a total of 6 administrations). Group 1 and group 2 animals were treated with physiological saline in an equivalent volume.
Changes in animals' physical condition and behavior were evaluated by conventional methods. The neurological status was assessed by scoring neurological deficits according to MacGrow's stroke scoring system as modified by I. V. Gannushkina; by the muscle tone and coordination of movements monitoring methods; cognitive function was assessed by the passive avoidance conditioned reflex (PAR); and orientation and exploratory behavior by using the open field test. Also the drug's effect on the survival of rats was monitored.

NCCCC[C@H](NC(=O)[C@H](CCC(=O)O)NC(=O)CCC(=O)O)C(=O)NCCCCCCNC(=O)[C@H](CCCCN)NC(=O)[C@H](CCC(=O)O)NC(=O)CCC(=O)O [GK-2, bis-(N-monosuccinyl-glutamyl-lysine) hexamethylenediamide]
amount of Hsp32 (Hsp32): increase
animals with swelling of the affected hemisphere ([1]; 1 mg/kg i.p. at 1, 24, 48 h post-ischemia, NMRT day 7, control group 46%): 9%
mortality rate ([1]; 1 mg/kg i.p. at 1, 24, 48 h post-ischemia, control also 3): 3 animals
ischemic lesion volume ([1]; 1 mg/kg i.p. x3, NMRT day 7, n=12, saline control 266±20): 222±16 mm^3
reduction of lesion volume ([1]; 1 mg/kg i.p. x3, versus saline control): 16.5%
intensity of apomorphine-induced oral stereotypy (rats): enhanced the intensity
reduction in use of the affected limb and simultaneous use of 2 forelimbs [2]: much less pronounced
Relative number of animals with paralysis of 1 to 4 limbs ([3]; Day 1, SO 0, HS 0): 0%
Relative number of animals with paresis of 1 to 4 limbs ([3]; Day 1, SO 0, HS 37.5): 20%
Relative number of animals with ring movements ([3]; Day 1, SO 0, HS 50): 20%
Relative number of animals with limb weakness ([3]; Day 1, SO 30, HS 75): 30%
Relative number of animals with floppiness & slowness of movements ([3]; Day 1, SO 40, HS 100): 40%
Number of rats failing to mount the horizontal bar, abs. ([3]; Day 1, sham 3/10, stroke 6/8): 4/10
Number of rats missing the rotating rod (3 rpm) during 2 min, abs. ([3]; Day 1, sham 3/10, stroke 6/8): 4/10
Vertical motor activity ([3]; Day 1, sham 5.0, stroke 1.25): 3.7 ± 0.9
Exploration of openings ([3]; Day 1, sham 10.3, stroke 1.9): 3.6 ± 0.7
Horizontal motor activity ([3]; Day 1, sham 14.1, stroke 4.4): 9.9 ± 2.1
Number of rats failing to mount the horizontal bar, % ([3]; Day 1, sham 30, stroke 75): 40%
Number of rats missing the rotating rod (3 rpm) during 2 min, % ([3]; Day 1, sham 30, stroke 75): 40%
Cumulative index ([3]; Day 1, sham 30.3, stroke 7.5): 17.2 ± 3.5
Relative number of animals with paralysis of 1 to 4 limbs ([3]; Day 3, SO 0, HS 0): 0%
Relative number of animals with paresis of 1 to 4 limbs ([3]; Day 3, SO 0, HS 25): 0%
Relative number of animals with ring movements ([3]; Day 3, SO 0, HS 37.5): 10%
Relative number of animals with limb weakness ([3]; Day 3, SO 30, HS 75): 30%
Relative number of animals with floppiness & slowness of movements ([3]; Day 3, SO 30, HS 100): 30%
Number of rats failing to mount the horizontal bar, abs. ([3]; Day 3, sham 2/10, stroke 3/8): 2/10
Number of rats missing the rotating rod (3 rpm) during 2 min, abs. ([3]; Day 3, sham 2/10, stroke 5/8): 3/10
Exploration of openings ([3]; Day 3, sham 4.0, stroke 3.1): 3.7 ± 0.9
Vertical motor activity ([3]; Day 3, sham 4.6, stroke 1.1): 2.4 ± 0.6
Horizontal motor activity ([3]; Day 3, sham 9.3, stroke 3.0): 5.6 ± 1.4
Cumulative index ([3]; Day 3, sham 17.9, stroke 7.2): 11.7 ± 2.4
Number of rats failing to mount the horizontal bar, % ([3]; Day 3, sham 20, stroke 37.5): 20%
Number of rats missing the rotating rod (3 rpm) during 2 min, % ([3]; Day 3, sham 20, stroke 62.5): 30%
Relative number of animals with paralysis of 1 to 4 limbs ([3]; Day 7, SO 0, HS 0): 0%
Relative number of animals with paresis of 1 to 4 limbs ([3]; Day 7, SO 0, HS 0): 0%
Relative number of animals with ring movements ([3]; Day 7, SO 0, HS 0): 0%
Relative number of animals with floppiness & slowness of movements ([3]; Day 7, SO 0, HS 43): 0%
Relative number of animals with limb weakness ([3]; Day 7, SO 0, HS 43): 0%
Number of rats failing to mount the horizontal bar, % ([3]; Day 7, sham 0, stroke 43): 10%
Number of rats missing the rotating rod (3 rpm) during 2 min, % ([3]; Day 7, sham 0, stroke 43): 20%
Number of rats failing to mount the horizontal bar, abs. ([3]; Day 7, sham 0/10, stroke 3/7): 1/10
Number of rats missing the rotating rod (3 rpm) during 2 min, abs. ([3]; Day 7, sham 0/10, stroke 3/7): 2/10
Exploration of openings ([3]; Day 7, sham 3.7, stroke 2.9): 4.3 ± 0.9
Vertical motor activity ([3]; Day 7, sham 4.1, stroke 1.0): 4.4 ± 0.7
Horizontal motor activity ([3]; Day 7, sham 8.6, stroke 3.7): 8.1 ± 1.6
Cumulative index ([3]; Day 7, sham 16.4, stroke 7.6): 16.8 ± 2.7
Relative number of animals with floppiness & slowness of movements ([3]; Day 14, SO 0, HS 0): 0%
Relative number of animals with limb weakness ([3]; Day 14, SO 0, HS 0): 0%
Relative number of animals with paralysis of 1 to 4 limbs ([3]; Day 14, SO 0, HS 0): 0%
Relative number of animals with paresis of 1 to 4 limbs ([3]; Day 14, SO 0, HS 0): 0%
Relative number of animals with ring movements ([3]; Day 14, SO 0, HS 0): 0%
Number of rats failing to mount the horizontal bar, % ([3]; Day 14, sham 0, stroke 17): 0%
Number of rats missing the rotating rod (3 rpm) during 2 min, % ([3]; Day 14, sham 0, stroke 17): 0%
Number of rats failing to mount the horizontal bar, abs. ([3]; Day 14, sham 0/10, stroke 1/6): 0/10
Number of rats missing the rotating rod (3 rpm) during 2 min, abs. ([3]; Day 14, sham 0/10, stroke 1/6): 0/10
Exploration of openings ([3]; Day 14, sham 5.0, stroke 2.8): 3.2 ± 0.9
Vertical motor activity ([3]; Day 14, sham 5.1, stroke 1.0): 2.8 ± 0.9
Horizontal motor activity ([3]; Day 14, sham 9.1, stroke 1.8): 7.5 ± 1.7
Cumulative index ([3]; Day 14, sham 19.2, stroke 5.7): 13.5 ± 2.9
